Experimental data: patent US20250204530A1, “USE OF CAROTENIOD COMPOSITION FOR NEMATODE CONTROL” (IDAI NATURE, S.L., priority 2022, published 2025)

Test system: Phytopathogenic nematodes (Helicotylenchus and Hemicycliophora)
Test: NEPOT test in soil pots: full formulation, co-formulants, lutein alone (Example 14)
Format: in vivo
Conditions: 20 mL/pot, 7 DAA; for number of nematodes in soil (living individuals, Baermann): 320 individuals per pot
Source text: The purpose of this test was to evaluate the efficacy of the products coded as P1, P2 and P3 of the company IDAI NATURE against a mixture of phytopathogenic nematodes by the company NEVAL.
This study evaluates the behaviour under controlled conditions, in soil (NEPOT test)* of a battery of products against a mixture of phytopathogenic nematodes.
This study consists of 3 compositions, each of them at 2 doses and a control without treatment.
The juveniles were obtained from a freshly extracted sample of roots of sports lawns.
It is based on pots or glasses with the right amount of 100 mL for a quantification per sample.
• Product 1: N-09-04—Full formulation • Product 2: Co-formulant package (without A.I.)—(sunflower oil+tensioactives polysorbates 20, 80 and 85+butyl glycol+TBHQ+water) • Product 3: The Active ingredient alone—Lutein
The trial was carried out laboratory in Xilxes—Castelon—Spain—under controlled conditions and plant pathogenic nematodes in soil in a volume of 100 mL per pot. The three replicates per treatment were worked in 100 mL pots of soil with 320 plant pathogenic nematodes in each pot. • Pest: Phytopathogenic nematodes (Helicotylenchus and Hemicycliophora) • Innoculum quantity: 320 individuals per experimental unit • Substract: Sandy soil • Application: Manual—20 mL/pot • Design: Randomized Complete Block (RCB)—3 replicates per treatment • Equipment: Manual application: with micropipette and MAT 09.1 balance • Application code: A=28/06/2021—preparation+application A • Extraction=05/07/2021 (7 DAA according Baermann) • Quantification=06/07/2021
Products 1 (N-09-04 full formulation) and product 2 (the full formulation without the Lutein) were mixed with water, while product 3 (Lutein alone—active ingredient), difficult miscibility was deposited on the ground, adding the water later and mixing everything in the soil with a teaspoon shaking for 30 seconds each replica.
After the study carried out under laboratory conditions, each of the soil samples was extracted using the Baermann funnel procedure for 24 hours and then quantified under a biological microscope.
The Baermann procedure has the particular option of extracting only those individuals that have mobility, that is, that are alive, so the result is extrapolated to living individuals.

CC1=C[C@H](O)CC(C)(C)[C@H]1/C=C/C(C)=C/C=C/C(C)=C/C=C/C=C(C)/C=C/C=C(C)/C=C/C1=C(C)C[C@@H](O)CC1(C)C [Product 3, Lutein]
efficacy / control (in brackets) (0.375 mL/L): 78.4% | number of nematodes in soil (living individuals, Baermann) (0.375 mL/L): 68.0 | efficacy / control (in brackets) (0.563 ml/L): 77.5% | number of nematodes in soil (living individuals, Baermann) (0.563 ml/L): 71.0 | efficacy / control (in brackets) (5 ml/L): 4.2% | efficacy / control (in brackets) (7.5 ml/L): 40.8%
